{"source": "patent US11053204B2", "about": "“Pyrimidinyloxy benzene derivatives as herbicides” (FMC Corporation, priority 2015, dated 2021)", "type_in_all_cases": "in vivo", "key": {"[1]": {"system": "windgrass (Apera spica-venti)", "assay": "Test C preemergence, plant response rating"}, "[2]": {"system": "oat, wild (wild oat Avena fatua)", "assay": "Test C preemergence, plant response rating"}, "[3]": {"system": "nightshade (eastern black nightshade, Solanum ptycanthum)", "assay": "Test C preemergence, plant response rating"}, "[4]": {"system": "galium (catchweed bedstraw, Galium aparine)", "assay": "Test C preemergence, plant response rating"}, "[5]": {"system": "wild poinsettia (Euphorbia heterophylla)", "assay": "Test C postemergence, plant response rating", "conditions": "for Poinsettia, Wild plant response rating: scale 0 to 100 (0 no effect, 100 complete control)", "method_in_brief": "(§1)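 Pre-emergence: seeds sown in loam soil–sand blend or silt loam and sprayed with test chemicals in a non-phytotoxic solvent mixture with surfactant. Post-emergence: plants 2 to 18 cm (1- to 4-leaf stage) in peat-based potting medium, same formulation. Greenhouse 13 to 15 d; visual rating 0 (no effect) to 100 (complete control) versus controls.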"}, "[6]": {"system": "field poppy (Papaver rhoeas)", "assay": "Test C postemergence, plant response rating", "conditions": "for Field Poppy plant response rating: scale 0 to 100 (0 no effect, 100 complete control)", "method_in_brief": "as §1"}, "[7]": {"system": "field violet (Viola arvensis)", "assay": "Test C postemergence, plant response rating", "conditions": "for Field Violet plant response rating: scale 0 to 100 (0 no effect, 100 complete control)", "method_in_brief": "as §1"}, "[8]": {"system": "speedwell (bird's-eye speedwell, Veronica persica)", "assay": "Test C postemergence, plant response rating", "conditions": "for Speedwell plant response rating: scale 0 to 100 (0 no effect, 100 complete control)", "method_in_brief": "as §1"}, "[9]": {"system": "nightshade (eastern black nightshade, Solanum ptycanthum)", "assay": "Test C postemergence, plant response rating", "conditions": "for Nightshade plant response rating: scale 0 to 100 (0 no effect, 100 complete control)", "method_in_brief": "as §1"}, "[10]": {"system": "buckwheat, wild (wild buckwheat, Polygonum convolvulus)", "assay": "Test C postemergence, plant response rating", "conditions": "for Buckwheat, Wild plant response rating: scale 0 to 100 (0 no effect, 100 complete control)", "method_in_brief": "as §1"}, "[11]": {"system": "johnsongrass (Sorghum halepense)", "assay": "Test C postemergence, plant response rating", "conditions": "for Johnsongrass plant response rating: scale 0 to 100 (0 no effect, 100 complete control)", "method_in_brief": "as §1"}, "[12]": {"system": "Canada thistle (Cirsium arvense)", "assay": "Test C postemergence, plant response rating", "conditions": "for Canada Thistle plant response rating: scale 0 to 100 (0 no effect, 100 complete control)", "method_in_brief": "as §1"}, "[13]": {"system": "pigweed, palmer (palmer pigweed, Amaranthus palmeri)", "assay": "Test C postemergence, plant response rating", "conditions": "for Pigweed, Palmer plant response rating: scale 0 to 100 (0 no effect, 100 complete control)", "method_in_brief": "as §1"}, "[14]": {"system": "windgrass (Apera spica-venti)", "assay": "Test C postemergence, plant response rating", "method_in_brief": "as §1"}, "[15]": {"system": "geranium, cutleaf (cutleaf geranium, Geranium dissectum)", "assay": "Test C postemergence, plant response rating", "conditions": "for Geranium, Cutleaf plant response rating: scale 0 to 100 (0 no effect, 100 complete control)", "method_in_brief": "as §1"}, "[16]": {"system": "surinam grass (Brachiaria decumbens)", "assay": "Test C postemergence, plant response rating", "method_in_brief": "as §1"}, "[17]": {"system": "barnyardgrass (Echinochloa crus-galli)", "assay": "Test C preemergence, plant response rating", "conditions": "Echinochloa crus-galli, pre-emergence, Preemergence"}, "[18]": {"system": "wild poinsettia (Euphorbia heterophylla)", "assay": "Test C preemergence, plant response rating"}, "[19]": {"system": "johnsongrass (Sorghum halepense)", "assay": "Test C preemergence, plant response rating"}, "[20]": {"conditions": "125 g ai/ha, scale 0 to 100 (0 no effect, 100 complete control)"}}, "data": [{"smiles": "O=C(CCC(F)(F)F)c1c(Cl)cccc1Oc1ncc(Cl)cn1", "note": "[Compound 107, 1-[2-chloro-6-[(5-chloro-2-pyrimidinyl)oxy]phenyl]-4,4,4-trifluoro-1-butanone]", "values": [{"measurement": "Plant response rating, Windgrass", "setting": "[1]; 31 g ai/ha, scale 0 to 100", "result": 100}, {"measurement": "Plant response rating, Windgrass", "setting": "[1]; 62 g ai/ha, scale 0 to 100", "result": 100}, {"measurement": "Plant response rating, Windgrass", "setting": "[1]; 125 g ai/ha, scale of 0 to 100", "result": 100}, {"measurement": "Plant response rating, Oat, Wild", "setting": "[2]; 31 g ai/ha, scale 0 to 100", "result": 5}, {"measurement": "Plant response rating, Oat, Wild", "setting": "[2]; 62 g ai/ha, scale 0 to 100", "result": 30}, {"measurement": "Plant response rating, Oat, Wild", "setting": "[2]; 125 g ai/ha, scale of 0 to 100", "result": 65}, {"measurement": "Plant response rating, Nightshade", "setting": "[3]; 31 g ai/ha, scale 0 to 100", "result": 60}, {"measurement": "Plant response rating, Nightshade", "setting": "[3]; 62 g ai/ha, scale 0 to 100", "result": 80}, {"measurement": "Plant response rating, Nightshade", "setting": "[3]; 125 g ai/ha, scale of 0 to 100", "result": 90}, {"measurement": "Plant response rating, Galium", "setting": "[4]; 31 g ai/ha, scale 0 to 100", "result": 60}, {"measurement": "Plant response rating, Galium", "setting": "[4]; 62 g ai/ha, scale 0 to 100", "result": 90}, {"measurement": "Plant response rating, Galium", "setting": "[4]; 125 g ai/ha, scale of 0 to 100", "result": 95}, {"measurement": "Plant response rating, Poinsettia, Wild", "setting": "[5]; 16 g ai/ha, scale of 0 to 100", "result": 70}, {"measurement": "Plant response rating, Poinsettia, Wild", "setting": "[5]; 31 g ai/ha, scale 0 to 100", "result": 75}, {"measurement": "Poinsettia, Wild plant response rating", "setting": "[5]; 62 g ai/ha", "result": 90}, {"measurement": "Poinsettia, Wild plant response rating", "setting": "[5]; 125 g ai/ha", "result": 90}, {"measurement": "Plant response rating, Field Poppy", "setting": "[6]; 16 g ai/ha, scale of 0 to 100", "result": 80}, {"measurement": "Plant response rating, Field Poppy", "setting": "[6]; 31 g ai/ha, scale 0 to 100", "result": 98}, {"measurement": "Field Poppy plant response rating", "setting": "[6]; 62 g ai/ha", "result": 98}, {"measurement": "Field Poppy plant response rating", "setting": "[6]; 125 g ai/ha", "result": 100}, {"measurement": "Plant response rating, Field Violet", "setting": "[7]; 16 g ai/ha, scale of 0 to 100", "result": 95}, {"measurement": "Plant response rating, Field Violet", "setting": "[7]; 31 g ai/ha, scale 0 to 100", "result": 98}, {"measurement": "Field Violet plant response rating", "setting": "[7]; 62 g ai/ha", "result": 98}, {"measurement": "Field Violet plant response rating", "setting": "[7]; 125 g ai/ha", "result": 100}, {"measurement": "Plant response rating, Speedwell", "setting": "[8]; 16 g ai/ha, scale of 0 to 100", "result": 100}, {"measurement": "Plant response rating, Speedwell", "setting": "[8]; 31 g ai/ha, scale 0 to 100", "result": 100}, {"measurement": "Speedwell plant response rating", "setting": "[8]; 62 g ai/ha", "result": 100}, {"measurement": "Speedwell plant response rating", "setting": "[8]; 125 g ai/ha", "result": 100}, {"measurement": "Plant response rating, Nightshade", "setting": "[9]; 16 g ai/ha, scale of 0 to 100", "result": 75}, {"measurement": "Plant response rating, Nightshade", "setting": "[9]; 31 g ai/ha, scale 0 to 100", "result": 90}, {"measurement": "Nightshade plant response rating", "setting": "[9]; 62 g ai/ha", "result": 98}, {"measurement": "Nightshade plant response rating", "setting": "[9]; 125 g ai/ha", "result": 100}, {"measurement": "Plant response rating, Buckwheat, Wild", "setting": "[10]; 16 g ai/ha, scale of 0 to 100", "result": 45}, {"measurement": "Plant response rating, Buckwheat, Wild", "setting": "[10]; 31 g ai/ha, scale 0 to 100", "result": 75}, {"measurement": "Buckwheat, Wild plant response rating", "setting": "[10]; 62 g ai/ha", "result": 75}, {"measurement": "Buckwheat, Wild plant response rating", "setting": "[10]; 125 g ai/ha", "result": 100}, {"measurement": "Plant response rating, Johnsongrass", "setting": "[11]; 16 g ai/ha, scale of 0 to 100", "result": 20}, {"measurement": "Plant response rating, Johnsongrass", "setting": "[11]; 31 g ai/ha, scale 0 to 100", "result": 10}, {"measurement": "Johnsongrass plant response rating", "setting": "[11]; 62 g ai/ha", "result": 35}, {"measurement": "Johnsongrass plant response rating", "setting": "[11]; 125 g ai/ha", "result": 98}, {"measurement": "Plant response rating, Canada Thistle", "setting": "[12]; 16 g ai/ha, scale of 0 to 100", "result": 80}, {"measurement": "Plant response rating, Canada Thistle", "setting": "[12]; 31 g ai/ha, scale 0 to 100", "result": 85}, {"measurement": "Canada Thistle plant response rating", "setting": "[12]; 62 g ai/ha", "result": 90}, {"measurement": "Canada Thistle plant response rating", "setting": "[12]; 125 g ai/ha", "result": 90}, {"measurement": "Plant response rating, Pigweed, Palmer", "setting": "[13]; 16 g ai/ha, scale of 0 to 100", "result": 90}, {"measurement": "Plant response rating, Pigweed, Palmer", "setting": "[13]; 31 g ai/ha, scale 0 to 100", "result": 95}, {"measurement": "Pigweed, Palmer plant response rating", "setting": "[13]; 62 g ai/ha", "result": 100}, {"measurement": "Pigweed, Palmer plant response rating", "setting": "[13]; 125 g ai/ha", "result": 100}, {"measurement": "Plant response rating, Windgrass", "setting": "[14]; 16 g ai/ha, scale of 0 to 100", "result": 5}, {"measurement": "Plant response rating, Windgrass", "setting": "[14]; 31 g ai/ha, scale 0 to 100", "result": 15}, {"measurement": "Windgrass plant response rating", "setting": "[14]; [20]", "result": 50}, {"measurement": "Plant response rating, Geranium, Cutleaf", "setting": "[15]; 16 g ai/ha, scale of 0 to 100", "result": 25}, {"measurement": "Plant response rating, Geranium, Cutleaf", "setting": "[15]; 31 g ai/ha, scale 0 to 100", "result": 35}, {"measurement": "Geranium, Cutleaf plant response rating", "setting": "[15]; 62 g ai/ha", "result": 60}, {"measurement": "Geranium, Cutleaf plant response rating", "setting": "[15]; 125 g ai/ha", "result": 75}, {"measurement": "Plant response rating, Surinam Grass", "setting": "[16]; 16 g ai/ha, scale of 0 to 100", "result": 10}, {"measurement": "Plant response rating, Surinam Grass", "setting": "[16]; 31 g ai/ha, scale 0 to 100", "result": 25}, {"measurement": "Surinam Grass plant response rating", "setting": "[16]; [20]", "result": 35}, {"measurement": "pest or weed control at 125 g/ha", "setting": "[17]; 125 g ai/ha, scale of 0 to 100", "result": 100, "unit": "%"}, {"measurement": "pest or weed control at 16 g/ha", "setting": "[17]; 16 g ai/ha, scale 0 to 100", "result": 65, "unit": "%"}, {"measurement": "pest or weed control at 31 g/ha", "setting": "[17]; 31 g ai/ha, scale 0 to 100", "result": 85, "unit": "%"}, {"measurement": "pest or weed control at 62 g/ha", "setting": "[17]; 62 g ai/ha, scale 0 to 100", "result": 100, "unit": "%"}, {"measurement": "Plant response rating, Poinsettia, Wild", "setting": "[18]; 31 g ai/ha, scale 0 to 100", "result": 10}, {"measurement": "Plant response rating, Poinsettia, Wild", "setting": "[18]; 62 g ai/ha, scale 0 to 100", "result": 40}, {"measurement": "Plant response rating, Poinsettia, Wild", "setting": "[18]; 125 g ai/ha, scale of 0 to 100", "result": 70}, {"measurement": "Plant response rating, Johnsongrass", "setting": "[19]; 31 g ai/ha, scale 0 to 100", "result": 30}, {"measurement": "Plant response rating, Johnsongrass", "setting": "[19]; 62 g ai/ha, scale 0 to 100", "result": 70}, {"measurement": "Plant response rating, Johnsongrass", "setting": "[19]; 125 g ai/ha, scale of 0 to 100", "result": 80}]}]}
